Measurements reported in patent US6399380B1, “Native-state histoculturing skin extracellular support” (Anti-Cancer, Inc., priority 1991, dated 2002).

Columns and labels:
histocultured mouse skin = system: histocultured mouse skin
Procedure: Samples of skin having an external surface area of about 10 mm^2 and a thickness of about one to two mm were excised from an athymic nude mouse and placed on a GELFOAM™ matrix immersed in Eagle's MEM containing about 0.2 mg/ml of gentamycin and about 10% (v/v) fetal bovine serum. Prior to use the matrix was soaked in the medium for four hours at 37° C. to equilibrate the matrix in the medium.
The skin samples were maintained on the matrix in the medium at a temperature of about 37° C. in a gassed incubator under a mixture of 95% air and 5% CO2. Viability was assessed as the uptakes of an indicator specific for viable cells (BCECF-AM) and an indicator specific for dead cells (propidium iodide, PI), or as the uptake of [^3H]-thymidine.
The fluorescent dye indicators BCECF-AM and PI (Molecular Probes, Eugene, Oreg.) were added directly to the medium at a final concentration of 5 micromolar. Incorporation of the dyes was microscopically evaluated about 30 min following addition of the dyes to the medium by optical scanning using an MRC-600 Confocal Imaging System (Bio-Rad, Richmond, Calif.) mounted on a Nikon Epithet equipped with a 10× Plane objective. Samples were observed using an optical section of about 4 microns.
Skin samples from athymic nude mice were cultured according to the method of Example 1. Viability was assessed before and after the addition of putative toxins using BCECF-AM and [^3H]-thymidine as indicators specific for viable cells and PI as an indicator specific for dead cells. The uptake of these indicators was determined according to the methods of Example 1.
An initial assessment of viability was made 2 days after initiation of the skin culture using BCECF-AM and PI. Immediately following this initial assessment, various concentrations of the toxins ethanol, doxorubicin or sodium hypochlorite were contacted with the skin samples. The final concentrations of the toxins varied from about 0.5% to about 70% (v/v) for ethanol, from about 29 to about 725 mgs/ml for doxorubicin and from about 0.6% to about 60.0% (v/v) for sodium hypochlorite.
The skin samples were contacted with ethanol, doxorubicin and sodium hypochlorite for about 5 min., for about 24 hours and for about 2 hours respectively. Following these contact times, the toxin-containing medium was replaced with fresh, non-toxin-containing medium and the skin samples reassessed for viability using BCECF-AM and PI Viability was assessed in the same region of the skin sample before and after contact with the toxin.
In this study, toxicity was expressed as a percent of killed cells. The fraction of killed cells (PI-positive cells) with respect to total cells (PI-positive (red) plus BCECF-AM-positive (green) cells) in treated cultures is measured with confocal fluorescence scanning microscopy and is compared to untreated controls to determine cytotoxicity. The percent of killed cells is expressed as the number of red cells after treatment minus the number of red cells before treatment, divided by the total number of cells (green cells after treatment plus red cells after treatment).
The effects of doxorubicin and sodium hypochlorite on skin toxicity were determined in an identical manner to that described above for ethanol.

[1] = system: dermal, epidermal and follicle cells of histocultured mouse skin; assay: Skin toxicity assay: [3H]-thymidine uptake (percent cell proliferation), autoradiography; format: cell-based; conditions: FIG. 6
Procedure: [^3H]-Thymidine was added directly to the medium at a final concentration of 4 μCI/ml. Skin samples were maintained in the thymidine-containing medium for 3 days. After the 3 days, the skin cultures were washed with phosphate-buffered saline, pH 7.0, placed in histology capsules and fixed in 10% (v/v) formalin. The fixed skin cultures were then dehydrated, embedded in paraffin, sectioned and placed on slides by standard methods well known to those of skill in the histology art. The slides were deparaffinized, coated with Kodak NTB-2 emulsion, exposed for 5 days and developed. […]
In addition, skin samples contacted with doxorubicin were assessed for viability using the uptake of [^3H]-thymidine measured after 24 hr of toxin contact.
In this study, toxicity was expressed as percent cell proliferation. Percent cell proliferation was calculated as the ratio of, (1) percentage of cells labeled with [^3H]-thymidine to total cells in doxorubicin treated samples compared to (2) the percentage of [^3H]-thymidine labeled cells to total cells in control, untreated skin samples.

dorsal skin of mice = conditions: mouse, in vivo
Procedure: The in vivo assessment of toxicity was determined using a standard skin irritation test as set forth below.
Small pieces of gauze paper (about 1.5 cm^2 size), which have been soaked in different concentrations of sodium hypochlorite, were tightly put on 3 different sites on the dorsal surface of the mice. Skin sites were scored on a 1 to 4 scale for […] and edema ½ hour and 1 hour after removal of the sodium hypochlorite. The primary irritation index (PII) for each concentration of sodium hypochlorite was derived from the following formula: […]

COc1cccc2c1C(=O)c1c(O)c3c(c(O)c1C2=O)C[C@@](O)(C(=O)CO)C[C@@H]3O[C@H]1C[C@H](N)[C@H](O)[C@H](C)O1 [doxorubicin]
toxicity (percent of killed cells) as a function of concentration (histocultured mouse skin; doxorubicin about 29 to about 725 mgs/ml, 24 hours, FIG. 5): relatively proportional to the concentration of doxorubicin
percent cell proliferation ([3H]-thymidine labeled cells relative to control) ([1]; 24 hour exposure to doxorubicin): dose-dependent decrease in cell proliferation
cell type in which toxicity was most pronounced ([1]; 24 hour exposure, dermal, epidermal and follicle cells compared): most pronounced in hair follicle cells

CCO [ethanol]
viability of skin sample after vs before treatment (live/dead staining) (histocultured mouse skin; 0.5% (v/v) or 5.0% ethanol, about 5 min, skin histocultured 2 days, FIG. 3): a large number of cells died
relative toxicity (loss in viability) (histocultured mouse skin; 5.0% vs 0.5% ethanol, about 5 min, FIG. 3): more toxic (a greater loss in viability) than was 0.5% ethanol
loss of viability (histocultured mouse skin; 30%, 50% and 70% ethanol, data not shown): increasing losses of viability above the extent of losses observed using 5% ethanol
percent of killed cells (toxicity) as a function of concentration (histocultured mouse skin; ethanol about 0.5% to about 70% (v/v), 5 minutes, skin histocultured two days, FIG. 4): increases as the concentration of ethanol increases

OCl [sodium hypochlorite]
threshold of toxicity (percent of killed cells) (histocultured mouse skin; athymic nude, mouse): about 0.6%
threshold of toxicity (primary irritation index) (dorsal skin of mice): about 0.6%
